In experiment [1] the target is T1, wt human TYK2, catalytic site (Homo sapiens, UniProt P29597).
T1 construct: wt human TYK2, catalytic site; purchased SignalChem
T1 sequence (P29597 897-1176 limits assumed): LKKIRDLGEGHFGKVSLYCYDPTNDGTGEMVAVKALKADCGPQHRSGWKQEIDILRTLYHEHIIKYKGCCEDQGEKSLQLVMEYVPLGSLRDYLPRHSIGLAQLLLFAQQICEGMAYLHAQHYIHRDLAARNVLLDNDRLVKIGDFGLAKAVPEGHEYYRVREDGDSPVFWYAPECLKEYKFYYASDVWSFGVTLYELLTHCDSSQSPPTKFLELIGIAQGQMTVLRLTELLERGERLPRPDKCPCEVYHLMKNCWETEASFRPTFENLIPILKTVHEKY
The experiment can be described thus: HTRF KinEASE assay, TYK2. The format is biochemical. The note with it: 1 μM ATP; read-out: IC50, Activity Toward TYK2. In short, it runs like this: (§1)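 HTRF KinEASE-TK readout with 1 μM biotinylated TK substrate in 1× kinase buffer, ≥30 min at room temperature, then antibody/streptavidin-XL665 detection for 60 min. TYK2 at 2 nM with 1 μM ATP; JAK2 at 1 nM with 100 μM ATP. Analysis uses emission ratios.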
(TR-FRET usually uses a lanthanide donor and a delayed reading to cut background.)

The target of experiment [2] is T2, wt human JAK2, catalytic site (Homo sapiens, UniProt O60674).
T2 construct: wt human JAK2, catalytic site; purchased SignalChem
T2 sequence (O60674 849-1124 limits assumed): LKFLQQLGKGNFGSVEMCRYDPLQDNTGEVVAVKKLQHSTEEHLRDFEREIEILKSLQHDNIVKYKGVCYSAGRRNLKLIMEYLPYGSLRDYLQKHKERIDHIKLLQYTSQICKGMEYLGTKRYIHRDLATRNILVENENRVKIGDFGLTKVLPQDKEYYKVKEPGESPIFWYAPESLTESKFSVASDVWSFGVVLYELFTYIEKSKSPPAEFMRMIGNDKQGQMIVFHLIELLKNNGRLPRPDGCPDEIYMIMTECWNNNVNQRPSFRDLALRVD
Description: HTRF KinEASE assay, JAK2. The note with it: assay format not given (Z'-LYTE or HTRF KinEASE); read-out: IC50, Activity Toward JAK2. The format is biochemical. In short, it runs like this: as §1

The target in experiment [3] is T3, wt human NUAK1, full length (Homo sapiens, UniProt O60285).
T3 construct: 8 nM wt human NUAK1, full length (ThermoFisher/USA); purchased ThermoFisher
T3 sequence (O60285 1-661): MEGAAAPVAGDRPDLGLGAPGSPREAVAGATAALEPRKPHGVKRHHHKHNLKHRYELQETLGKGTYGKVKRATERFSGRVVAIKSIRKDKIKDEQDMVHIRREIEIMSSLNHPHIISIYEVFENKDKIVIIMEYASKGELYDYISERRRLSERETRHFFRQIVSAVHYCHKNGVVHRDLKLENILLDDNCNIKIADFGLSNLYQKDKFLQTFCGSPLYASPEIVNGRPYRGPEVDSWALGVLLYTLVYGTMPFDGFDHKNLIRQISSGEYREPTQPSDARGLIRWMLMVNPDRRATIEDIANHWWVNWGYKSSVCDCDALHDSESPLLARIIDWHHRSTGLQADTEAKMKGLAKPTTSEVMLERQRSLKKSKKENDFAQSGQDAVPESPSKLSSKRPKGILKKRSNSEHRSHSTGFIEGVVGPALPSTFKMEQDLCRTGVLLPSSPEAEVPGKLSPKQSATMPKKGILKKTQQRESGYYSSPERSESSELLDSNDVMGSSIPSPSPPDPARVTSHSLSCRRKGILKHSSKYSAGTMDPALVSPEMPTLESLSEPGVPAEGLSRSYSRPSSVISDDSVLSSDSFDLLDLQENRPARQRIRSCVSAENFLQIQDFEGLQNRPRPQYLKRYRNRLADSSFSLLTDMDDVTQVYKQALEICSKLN
The experiment can be described thus: TR-FRET LanthaScreen Eu Kinase Binding Assay, NUAK1. The conditions noted are these: read-out: IC50, Activity Toward NUAK1. In short, it runs like this: (§2)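 Emission ratios from TR-FRET were analysed per the LanthaScreen binding protocol after 1 h room-temperature incubation of compound, kinase/antibody and Kinase Tracer 236. Final levels were 5 nM LRRK2 with 2 nM Eu-anti-GST and 10 nM tracer, or 8 nM NUAK1 with 2 nM Eu-anti-His and 5 nM tracer.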

Experiment [4] concerns the target T4, wt human LRRK2, catalytic site (Homo sapiens, UniProt Q5S007).
T4 construct: 5 nM wt human LRRK2, catalytic site; purchased ThermoFisher
Description: TR-FRET LanthaScreen Eu Kinase Binding Assay, LRRK2 wt. The note with it: one range stated for wt and G2019, read-out: IC50, Activity Toward LRRK2(Wt). An outline of the steps:
as §2

The target of experiment [5] is T5, wt human JAK1, catalytic site (Homo sapiens, UniProt P23458).
T5 construct: wt human JAK1, catalytic site; purchased ThermoFisher
T5 sequence (P23458 875-1153 limits assumed): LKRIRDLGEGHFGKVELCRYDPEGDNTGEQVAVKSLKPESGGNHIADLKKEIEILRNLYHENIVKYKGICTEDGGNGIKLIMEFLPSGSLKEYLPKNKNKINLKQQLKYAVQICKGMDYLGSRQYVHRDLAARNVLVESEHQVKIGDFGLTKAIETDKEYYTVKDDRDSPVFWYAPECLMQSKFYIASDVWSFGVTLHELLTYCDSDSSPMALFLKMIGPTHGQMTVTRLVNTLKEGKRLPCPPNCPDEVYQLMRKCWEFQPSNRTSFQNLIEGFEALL
Description: HTRF KinEASE assay, JAK1. Type of experiment: biochemical. The note with it: 2.5 μM ATP; read-out: IC50, Activity Toward JAK1. An outline of the steps:
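Two-step HTRF KinEASE assay: compound, kinase/biotinylated TK substrate and ATP were incubated at least 30 min at room temperature. Antibody plus streptavidin-XL665 was then added and plates were read after 60 min. Inhibition was derived from emission ratios according to the kit protocol.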

Experiment [6] deals with T6, G2019S human LRRK2, catalytic site (Homo sapiens, UniProt Q5S007, G2019S).
T6 construct: G2019S human LRRK2, catalytic site; purchased ThermoFisher
T6 sequence (Q5S007 970-2527 G2019S limits assumed): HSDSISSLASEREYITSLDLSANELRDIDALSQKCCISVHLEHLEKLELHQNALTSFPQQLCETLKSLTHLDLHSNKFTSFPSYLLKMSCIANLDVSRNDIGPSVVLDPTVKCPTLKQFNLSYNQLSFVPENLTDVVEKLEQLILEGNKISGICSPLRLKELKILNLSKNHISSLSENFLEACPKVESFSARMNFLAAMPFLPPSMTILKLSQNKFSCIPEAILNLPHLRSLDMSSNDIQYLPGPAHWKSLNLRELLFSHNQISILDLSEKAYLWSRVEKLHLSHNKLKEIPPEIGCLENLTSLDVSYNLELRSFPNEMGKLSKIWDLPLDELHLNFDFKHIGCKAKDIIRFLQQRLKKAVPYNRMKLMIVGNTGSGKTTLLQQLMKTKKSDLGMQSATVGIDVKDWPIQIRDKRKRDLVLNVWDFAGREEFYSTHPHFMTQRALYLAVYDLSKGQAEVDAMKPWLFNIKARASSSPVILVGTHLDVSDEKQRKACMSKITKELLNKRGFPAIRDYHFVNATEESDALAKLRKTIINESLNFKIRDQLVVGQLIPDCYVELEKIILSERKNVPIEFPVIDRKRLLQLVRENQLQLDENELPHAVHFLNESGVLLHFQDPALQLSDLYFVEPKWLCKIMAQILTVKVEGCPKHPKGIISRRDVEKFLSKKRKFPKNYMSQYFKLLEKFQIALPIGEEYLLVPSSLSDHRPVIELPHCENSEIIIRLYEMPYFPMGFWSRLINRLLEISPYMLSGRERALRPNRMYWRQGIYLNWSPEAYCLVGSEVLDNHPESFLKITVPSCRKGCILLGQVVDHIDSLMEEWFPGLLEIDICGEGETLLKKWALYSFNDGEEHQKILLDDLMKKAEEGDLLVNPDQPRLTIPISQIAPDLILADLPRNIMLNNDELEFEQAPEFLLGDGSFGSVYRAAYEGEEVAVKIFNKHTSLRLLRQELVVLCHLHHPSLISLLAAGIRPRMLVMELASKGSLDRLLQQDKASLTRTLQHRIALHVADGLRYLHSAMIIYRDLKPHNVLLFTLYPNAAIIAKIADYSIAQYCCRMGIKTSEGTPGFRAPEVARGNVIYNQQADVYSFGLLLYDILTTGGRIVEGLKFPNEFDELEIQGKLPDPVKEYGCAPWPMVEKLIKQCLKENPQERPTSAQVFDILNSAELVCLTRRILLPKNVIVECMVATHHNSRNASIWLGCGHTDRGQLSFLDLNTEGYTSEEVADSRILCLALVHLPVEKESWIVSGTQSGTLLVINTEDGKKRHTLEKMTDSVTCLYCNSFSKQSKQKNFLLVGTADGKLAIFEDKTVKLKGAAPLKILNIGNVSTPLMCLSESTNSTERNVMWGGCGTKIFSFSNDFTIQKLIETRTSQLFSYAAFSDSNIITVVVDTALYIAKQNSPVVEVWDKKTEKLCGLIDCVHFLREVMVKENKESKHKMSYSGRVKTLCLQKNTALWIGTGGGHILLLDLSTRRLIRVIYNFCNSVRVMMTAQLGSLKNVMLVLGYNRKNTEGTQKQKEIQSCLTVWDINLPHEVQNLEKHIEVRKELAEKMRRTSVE
Description: TR-FRET LanthaScreen Eu Kinase Binding Assay, LRRK2 G2019S. The conditions noted are these: LRRK2(G2019); one range stated for wt and G2019; read-out: IC50, Activity Toward LRRK2(G2019). In short, it runs like this:
as §2

As usually defined, the IC50 is the concentration that inhibits the measured activity by half.

T4 sequence (Q5S007 970-2527 limits assumed): as the sequence (Q5S007 970-2527 G2019S limits assumed) above, with S1050G counted along it

For the molecule `CC(C)n1ncnc1-c1ccc(Nc2cn(-c3c(F)cccc3Cl)nc2C(N)=O)cc1` [compound 211, 1-(2-chloro-6-fluorophenyl)-4-((4-(1-isopropyl-1H-1,2,4-triazol-5-yl)phenyl)amino)-1H-pyrazole-3-carboxamide], the IC50 in experiment [1] was 10 to 100 nM; in experiment [2] it was 100 to 1000 nM; in experiment [3], 100 to 1000 nM; in experiment [4] it was 10 to 100 nM; in experiment [5] it was 100 to 1000 nM; in experiment [6] it was 10 to 100 nM.
`CC(C)n1cnnc1-c1ccc(Nc2cn(-c3c(Cl)cccc3Cl)nc2C(N)=O)cc1` [compound 205, 1-(2,6-dichlorophenyl)-4-((4-(4-isopropyl-4H-1,2,4-triazol-3-yl)phenyl)amino)-1H-pyrazole-3-carboxamide]: the IC50 was in the range of 10 to 100 nM in experiment [1]; 100 to 1000 nM in experiment [2]; 100 to 1000 nM in experiment [3]; 100 to 1000 nM in experiment [4]; 10 to 100 nM in experiment [5]; 100 to 1000 nM in experiment [6].
In the case of `CCn1ccnc1-c1ccc(Nc2cn(-c3c(Cl)cccc3Cl)nc2C(N)=O)cc1` [compound 229, 1-(2,6-dichlorophenyl)-4-((4-(1-ethyl-1H-imidazol-2-yl)phenyl)amino)-1H-pyrazole-3-carboxamide], the IC50 was 10 to 100 nM in experiment [1]; 100 to 1000 nM in experiment [2]; 100 to 1000 nM in experiment [3]; 100 to 1000 nM in experiment [4]; less than 10 nM in experiment [5]; 100 to 1000 nM in experiment [6].
On to `NC(=O)c1nn(-c2c(Cl)cccc2Cl)cc1Nc1ccc(-c2nncn2CC(F)F)cc1` [compound 212, 1-(2,6-dichlorophenyl)-4-((4-(4-(2,2-difluoroethyl)-4H-1,2,4-triazol-3-yl)phenyl)amino)-1H-pyrazole-3-carboxamide], for which the IC50 is less than 10 nM in experiment [1]; 100 to 1000 nM in experiment [2]; 100 to 1000 nM in experiment [3]; 100 to 1000 nM in experiment [4]; 10 to 100 nM in experiment [5]; 100 to 1000 nM in experiment [6].
As for `NC(=O)c1nn(-c2c(Cl)cccc2Cl)cc1Nc1ccc(-c2nncn2C2CC2)cc1` [compound 206, 4-((4-(4-cyclopropyl-4H-1,2,4-triazol-3-yl)phenyl)amino)-1-(2,6-dichlorophenyl)-1H-pyrazole-3-carboxamide], the IC50 in experiment [1] fell in the range of 10 to 100 nM; in experiment [2], 100 to 1000 nM; in experiment [3] it was 100 to 1000 nM; in experiment [4], 100 to 1000 nM; in experiment [5] it was 10 to 100 nM; in experiment [6], 100 to 1000 nM.
Regarding `NC(=O)c1nn(-c2c(Cl)cccc2Cl)cc1Nc1ccc(-c2nnc3ccccn23)cc1` [compound 333, 4-((4-([1,2,4]triazolo[4,3-a]pyridin-3-yl)phenyl)amino)-1-(2,6-dichlorophenyl)-1H-pyrazole-3-carboxamide], the half-maximal inhibitory concentration (IC50) is less than 10 nM in experiment [1]; 100 to 1000 nM in experiment [2]; 100 to 1000 nM in experiment [3]; 100 to 1000 nM in experiment [4]; 10 to 100 nM in experiment [5]; 100 to 1000 nM in experiment [6].
Consider `NC(=O)c1nn(-c2c(Cl)cccc2Cl)cc1Nc1ccc(-c2nncn2C2CCCC2)cc1` [compound 202, 4-((4-(4-cyclopentyl-4H-1,2,4-triazol-3-yl)phenyl)amino)-1-(2,6-dichlorophenyl)-1H-pyrazole-3-carboxamide], for which the IC50 was 10 to 100 nM in experiment [1]; 100 to 1000 nM in experiment [2]; 100 to 1000 nM in experiment [3]; 100 to 1000 nM in experiment [4]; 100 to 1000 nM in experiment [5]; 100 to 1000 nM in experiment [6].
For `NC(=O)c1nn(-c2c(Cl)ccc(F)c2Cl)cc1Nc1ccc(C(=O)N2CCOCC2)cc1` [compound 416, 1-(2,6-dichloro-3-fluorophenyl)-4-((4-(morpholine-4-carbonyl)phenyl)amino)-1H-pyrazole-3-carboxamide], the IC50 in experiment [1] was less than 10 nM; in experiment [2], 100 to 1000 nM; in experiment [3], 100 to 1000 nM; in experiment [4], 100 to 1000 nM; in experiment [5] it was 10 to 100 nM; in experiment [6], 100 to 1000 nM.
